These results are taken from patent US7714173B2, “Method for purifying terephthalaldehyde” (LG Chem, Ltd., priority 2006, dated 2010).

Series [1] can be described thus: physchem.
Series [2] in a line: Solubility of terephthalaldehyde and major impurities in water and dimethylsulfoxide. Conditions: solvent H2O, measured at 25° C.
A short description of series [3]: Stability of terephthalaldehyde in the dissolving solvent. It is filed as physicochemical. The source says: In a method for purifying terephthalaldehyde which comprises dissolving crude terephthalaldehyde in a solvent and then re-crystallizing the solution, using an anti-solvent, the present invention is characterized by using dimethylsulfoxide as the solvent. In the method for purifying terephthalaldehyde according to the present invention, usual alcohols or ethers may be used as a solvent dissolving terephthalaldehyde. However, dimethylsulfoxide according to the present invention has more excellent solubility of terephthalaldehyde and major impurities than those of the alcohols or the ethers, and may prepare terephthalaldehyde in a higher yield and purity.

[4] abbreviates: 25 °C, organic solvent or mixture.

The structures appear in SMILES notation. Converted amounts (≈) assume the structure as drawn.

Regarding `O=Cc1ccc(C(=O)O)cc1` [4-CBA, 4-carboxybenzaldehyde], the solubility – broadly, the concentration that dissolves in the medium under given conditions – is 1000 mg/mL (≈ 6660 mM) in series [1] (dimethylsulfoxide (DMSO), 25 °C, organic solvent or mixture) and less than 1.67 mg/mL in series [1] (water, 25 °C).
Turning to `O=Cc1ccc(O)cc1` [4-HBA, 4-hydroxybenzaldehyde], the solubility in series [1] (setting [4]) amounted to 1000 mg/mL (≈ 8190 mM); in series [1] (25 °C, water), 2.5 mg/mL (≈ 20.5 mM).
On to `Oc1ccc(O)cc1` [HQ, hydroquinone], for which the solubility in series [1] (setting [4]) came to 1000 mg/mL (≈ 9080 mM); in series [1] (25 °C, water), 20 mg/mL (≈ 182 mM).
On to `O=C(O)c1ccc(C(=O)O)cc1` [TPA, terphthalic acid], for which, in series [2], the “Solubility in H2O” value was less than 1.67 mg/mL.
Turning to `O=Cc1ccc(C=O)cc1` [terephthalaldehyde], in series [3] (alcohols such as methanol as solvent), the “Stability in alcohols such as methanol” value is on record as “changed into a material such as acetal”. For the same molecule, in series [3] (dimethylsulfoxide as solvent), the Stability in dimethylsulfoxide result was “such change is not occurred”.
